Laboratory results reported in ChEMBL document CHEMBL4196076, “An access to a library of novel triterpene derivatives with a promising pharmacological potential by Ugi and Passerini multicomponent reactions” (Eur J Med Chem, 2018).

Assays:
518A2 = assay: Cytotoxicity against human 518A2 cells after 96 hrs by sulforhodamine-B assay; type: functional, cell-based; settings: 518A2, 96 h
MCF7 = assay: Cytotoxicity against human MCF7 cells after 96 hrs by sulforhodamine-B assay; type: functional, cell-based; settings: MCF7, 96 h
NIH3T3 = assay: Cytotoxicity against mouse NIH/3T3 cells after 96 hrs by sulforhodamine-B assay; type: cell-based; settings: NIH3T3, 96 h
FaDu = assay: Cytotoxicity against human FADU cells after 96 hrs by sulforhodamine-B assay; type: functional, cell-based
HT-29 = assay: Cytotoxicity against human HT-29 cells after 96 hrs by sulforhodamine-B assay; type: functional, cell-based; settings: HT-29, 96 h
A549 = assay: Cytotoxicity against human A549 cells after 96 hrs by sulforhodamine-B assay; type: functional, cell-based; settings: A549, 96 h
A2780 = assay: Cytotoxicity against human A2780 cells after 96 hrs by sulforhodamine-B assay; type: functional, cell-based; settings: A2780, 96 h

| Structure (SMILES) | EC50 (518A2) | EC50 (MCF7) | EC50 (NIH3T3) | EC50 (FaDu) | EC50 (HT-29) | EC50 (A549) | EC50 (A2780) |
| --- | --- | --- | --- | --- | --- | --- | --- |
| CC(=O)O[C@H]1CC[C@]2(C)[C@H]3CC=C4[C@@H]5CC(C)(C)CC[C@]5(C(=O)N(CC(=O)NC(C)C)Cc5ccoc5)CC[C@@]4(C)[C@]3(C)CC[C@H]2C1(C)C | 6.5 µM | 16.7 µM | 10.1 µM | 12.5 µM | 9.6 µM | 7.5 µM | 3.6 µM |
| CCCCN(CC(=O)NCc1ccccc1)C(=O)[C@]12CCC(C)(C)C[C@H]1C1=CC[C@@H]3[C@@]4(C)CC[C@H](O)C(C)(C)[C@@H]4CC[C@@]3(C)[C@]1(C)CC2 | > 30 µM | 24.6 µM | > 30 µM | > 30 µM | 15.6 µM | – | > 30 µM |
| CCCCNC(=O)CN(Cc1ccccc1)C(=O)[C@]12CCC(C)(C)C[C@H]1C1=CC[C@@H]3[C@@]4(C)CC[C@H](O)C(C)(C)[C@@H]4CC[C@@]3(C)[C@]1(C)CC2 | > 30 µM | > 30 µM | > 30 µM | > 30 µM | > 30 µM | – | > 30 µM |
| CC(=O)O[C@@H]1C[C@]2(C)[C@H]3CC=C4[C@@H]5CC(C)(C)CC[C@]5(C(=O)OCC(=O)NCc5ccccc5)CC[C@@]4(C)[C@]3(C)CC[C@H]2C(C)(C)[C@H]1OC(C)=O | 4.3 µM | 3.6 µM | 2 µM | 7.3 µM | 4.9 µM | 3.2 µM | 1 µM |
| CCCCNC(=O)CN(Cc1ccoc1)C(=O)[C@]12CCC(C)(C)C[C@H]1C1=CC[C@@H]3[C@@]4(C)CC[C@H](O)C(C)(C)[C@@H]4CC[C@@]3(C)[C@]1(C)CC2 | > 30 µM | 15.5 µM | > 30 µM | > 30 µM | 15.9 µM | – | 17.6 µM |
| CC(=O)O[C@H]1CC[C@]2(C)[C@H]3CC=C4[C@@H]5CC(C)(C)CC[C@]5(C(=O)N(CC(=O)NCc5ccccc5)Cc5ccoc5)CC[C@@]4(C)[C@]3(C)CC[C@H]2C1(C)C | 15.9 µM | 15 µM | > 30 µM | 22.1 µM | > 30 µM | > 30 µM | 6.3 µM |
| C=CCN(CC(=O)NCCCC)C(=O)[C@]12CCC(C)(C)C[C@H]1C1=CC[C@@H]3[C@@]4(C)CC[C@H](O)C(C)(C)[C@@H]4CC[C@@]3(C)[C@]1(C)CC2 | > 30 µM | 21.3 µM | > 30 µM | > 30 µM | > 30 µM | – | 19.3 µM |
| C=CCN(CC(=O)NCc1ccccc1)C(=O)[C@]12CCC(C)(C)C[C@H]1C1=CC[C@@H]3[C@@]4(C)CC[C@H](O)C(C)(C)[C@@H]4CC[C@@]3(C)[C@]1(C)CC2 | > 30 µM | > 30 µM | > 30 µM | > 30 µM | > 30 µM | > 30 µM | 12.9 µM |
| CC1(C)CC[C@]2(C(=O)O)CC[C@]3(C)C(=CC[C@@H]4[C@@]5(C)C[C@@H](O)[C@H](O)C(C)(C)[C@@H]5CC[C@]43C)[C@@H]2C1 [MASLINIC ACID] | – | 37.2 µM | – | 17 µM | – | – | – |
| CC1(C)CC[C@]2(C(=O)N(CC(=O)NCc3ccccc3)Cc3ccoc3)CC[C@]3(C)C(=CC[C@@H]4[C@@]5(C)CC[C@H](O)C(C)(C)[C@@H]5CC[C@]43C)[C@@H]2C1 | > 30 µM | 12.6 µM | > 30 µM | > 30 µM | > 30 µM | > 30 µM | 13.2 µM |
| CC(=O)O[C@H]1CC[C@]2(C)[C@H]3CC=C4[C@@H]5CC(C)(C)CC[C@]5(C(=O)N(CC(=O)NC(C)(C)C)Cc5ccoc5)CC[C@@]4(C)[C@]3(C)CC[C@H]2C1(C)C | 24.7 µM | 19.8 µM | > 30 µM | 29.1 µM | > 30 µM | 24.2 µM | 7.1 µM |
| CC(=O)O[C@@H]1C[C@]2(C)[C@H]3CC=C4[C@@H]5CC(C)(C)CC[C@]5(C(=O)O)CC[C@@]4(C)[C@]3(C)CC[C@H]2C(C)(C)[C@H]1OC(C)=O | – | 1.6 µM | 12.2 µM | 21.3 µM | 25.5 µM | 18.9 µM | 10.5 µM |
| CC(=O)O[C@H]1CC[C@]2(C)[C@H]3CC=C4[C@@H]5CC(C)(C)CC[C@]5(C(=O)N(CC(=O)NC(C)(C)C)Cc5cccc(F)c5)CC[C@@]4(C)[C@]3(C)CC[C@H]2C1(C)C | > 30 µM | > 30 µM | > 30 µM | > 30 µM | > 30 µM | > 30 µM | 10.4 µM |
| CC(C)NC(=O)CN(Cc1ccoc1)C(=O)[C@]12CCC(C)(C)C[C@H]1C1=CC[C@@H]3[C@@]4(C)CC[C@H](O)C(C)(C)[C@@H]4CC[C@@]3(C)[C@]1(C)CC2 | 5.5 µM | 4.9 µM | 5.5 µM | 7.9 µM | 4.9 µM | – | 5.9 µM |
| C=CCN(CC(=O)NC(C)(C)C)C(=O)[C@]12CCC(C)(C)C[C@H]1C1=CC[C@@H]3[C@@]4(C)CC[C@H](O)C(C)(C)[C@@H]4CC[C@@]3(C)[C@]1(C)CC2 | 24.4 µM | 7 µM | 15.5 µM | 26 µM | 9.9 µM | 27.7 µM | 10.5 µM |
| CC(=O)O[C@H]1CC[C@]2(C)[C@H]3CC=C4[C@@H]5CC(C)(C)CC[C@]5(C(=O)N(C)CC(=O)NC(C)(C)C)CC[C@@]4(C)[C@]3(C)CC[C@H]2C1(C)C | 8.8 µM | 5.7 µM | 9.9 µM | 6.7 µM | 23.7 µM | – | 4.1 µM |
| CC(C)N(CC(=O)NCc1ccccc1)C(=O)[C@]12CCC(C)(C)C[C@H]1C1=CC[C@@H]3[C@@]4(C)CC[C@H](O)C(C)(C)[C@@H]4CC[C@@]3(C)[C@]1(C)CC2 | > 30 µM | 19.4 µM | > 30 µM | > 30 µM | > 30 µM | – | 15.4 µM |
| CC1(C)CC[C@]2(C(=O)N(CC(=O)NC(C)(C)C)Cc3cccc(F)c3)CC[C@]3(C)C(=CC[C@@H]4[C@@]5(C)CC[C@H](O)C(C)(C)[C@@H]5CC[C@]43C)[C@@H]2C1 | > 30 µM | > 30 µM | > 30 µM | > 30 µM | > 30 µM | – | > 30 µM |
| C=CCN(CC(=O)NCc1ccccc1)C(=O)[C@]12CCC(C)(C)C[C@H]1C1=CC[C@@H]3[C@@]4(C)CC[C@H](OC(C)=O)C(C)(C)[C@@H]4CC[C@@]3(C)[C@]1(C)CC2 | 18.9 µM | 19.2 µM | > 30 µM | 15.5 µM | > 30 µM | – | 6 µM |
| CC1(C)CC[C@]2(C(=O)N(CC(=O)NCc3ccccc3)Cc3ccccc3)CC[C@]3(C)C(=CC[C@@H]4[C@@]5(C)CC[C@H](O)C(C)(C)[C@@H]5CC[C@]43C)[C@@H]2C1 | > 30 µM | > 30 µM | > 30 µM | > 30 µM | > 30 µM | – | > 30 µM |
| CC1(C)CC[C@]2(C(=O)N(CC(=O)NC(C)(C)C)Cc3ccccc3)CC[C@]3(C)C(=CC[C@@H]4[C@@]5(C)CC[C@H](O)C(C)(C)[C@@H]5CC[C@]43C)[C@@H]2C1 | 11.4 µM | 14.8 µM | 8.8 µM | 17.8 µM | 11.5 µM | – | 13.5 µM |
